Measured values taken from ChEMBL document CHEMBL4052645, “Discovery of potent and efficacious pyrrolopyridazines as dual JAK1/3 inhibitors” (Bioorg Med Chem Lett, 2017).

Legend:
[1] = target: Rhodopsin kinase GRK1 (Homo sapiens) (UniProt Q15835); test: Inhibition of wild-type human full length RHOK (M1 to S563 residues) expressed in mammalian expression system assessed as residual activity at 50 nM by Kinomescan method relative to control
[2] = target: Dual specificity mitogen-activated protein kinase kinase 6 (Homo sapiens) (UniProt P52564); test: Inhibition of wild-type human partial length MAP2K6 (K36 to D334 residues) expressed in bacterial expression system assessed as residual activity at 50 nM by Kinomescan method relative to control
[3] = target: Insulin-like growth factor 1 receptor (Homo sapiens) (UniProt P08069); test: Inhibition of wild-type human partial length IGF1R (L972 to D1294 residues) expressed in bacterial expression system assessed as residual activity at 50 nM by Kinomescan method relative to control
[4] = target: Fibroblast growth factor receptor 1 (Homo sapiens) (UniProt P11362); test: Inhibition of wild-type human partial length FGFR1 (P357 to V669 residues) expressed in bacterial expression system assessed as residual activity at 50 nM by Kinomescan method relative to control
[5] = target: Epithelial discoidin domain-containing receptor 1 (Homo sapiens) (UniProt Q08345); test: Inhibition of wild-type human partial length DDR1 (R565 to V876 residues) expressed in bacterial expression system assessed as residual activity at 50 nM by Kinomescan method relative to control
[6] = target: Homeodomain-interacting protein kinase 4 (Homo sapiens) (UniProt Q8NE63); test: Inhibition of wild-type human partial length HIPK4 (M1 to V384 residues) expressed in bacterial expression system assessed as residual activity at 50 nM by Kinomescan method relative to control
[7] = target: Ribosomal protein S6 kinase alpha-1 (Homo sapiens) (UniProt Q15418); test: Inhibition of wild-type human partial length C-terminal RSK1 […] (P360 to L681 residues) expressed in bacterial expression system assessed as residual activity at 50 nM by Kinomescan method relative to control
[8] = target: Ribosomal protein S6 kinase alpha-5 (Homo sapiens) (UniProt O75582); test: Inhibition of wild-type human partial length N-terminal MSK1 kinase domain 1 expressed in bacterial expression system assessed as residual activity at 50 nM by Kinomescan method relative to control
[9] = target: Serine/threonine-protein kinase/endoribonuclease IRE1 (Homo sapiens) (UniProt O75460); test: Inhibition of wild-type human partial length IRE1 (S551 to E852 residues) expressed in mammalian expression system assessed as residual activity at 50 nM by Kinomescan method relative to control
[10] = target: RAC-beta serine/threonine-protein kinase (Homo sapiens) (UniProt P31751); test: Inhibition of wild-type human partial length AKT2 expressed in bacterial expression system assessed as residual activity at 50 nM by Kinomescan method relative to control
[11] = target: Phosphatidylinositol 4,5-bisphosphate 3-kinase catalytic subunit alpha isoform (Homo sapiens) (UniProt P42336); test: Inhibition of wild-type human partial length PI3KCA (R108 to N1068 residues) expressed in mammalian expression system assessed as residual activity at 50 nM by Kinomescan method relative to control
[12] = target: Serine/threonine-protein kinase VRK2 (Homo sapiens) (UniProt Q86Y07); test: Inhibition of wild-type human partial length VRK2 (M1 to T336 residues) expressed in mammalian expression system assessed as residual activity at 50 nM by Kinomescan method relative to control
[13] = target: Cyclin-dependent kinase 7 (Homo sapiens) (UniProt P50613); test: Inhibition of wild-type human full length CDK7 (M1 to L344 residues) expressed in mammalian expression system assessed as residual activity at 50 nM by Kinomescan method relative to control
[14] = target: Tyrosine-protein kinase Yes (Homo sapiens) (UniProt P07947); test: Inhibition of wild-type human partial length YES (T257 to L543 residues) expressed in bacterial expression system assessed as residual activity at 50 nM by Kinomescan method relative to control
[15] = target: Ribosomal protein S6 kinase alpha-3 (Homo sapiens) (UniProt P51812); test: Inhibition of wild-type human partial length N-terminal RSK2 kinase domain 1 (M1 to D394 residues) expressed in mammalian expression system assessed as residual activity at 50 nM by Kinomescan method relative to control
[16] = target: LIM domain kinase 1 (Homo sapiens) (UniProt P53667); test: Inhibition of wild-type human full length LIMK1 (M1 to D647 residues) expressed in bacterial expression system assessed as residual activity at 50 nM by Kinomescan method relative to control
[17] = target: Ephrin type-A receptor 6 (Homo sapiens) (UniProt Q9UF33); test: Inhibition of wild-type human partial length EPHA6 (Y700 to E1046 residues) expressed in bacterial expression system assessed as residual activity at 50 nM by Kinomescan method relative to control
[18] = target: Activin receptor type-1-like (Homo sapiens) (UniProt P37023); test: Inhibition of wild-type human ALK1 (L164 to Q503 residues) expressed in bacterial expression system assessed as residual activity at 50 nM by Kinomescan method relative to control
[19] = target: Protein kinase C theta type (Homo sapiens) (UniProt Q04759); test: Inhibition of wild-type human partial length PKCT (L350 to S706 residues) expressed in bacterial expression system assessed as residual activity at 50 nM by Kinomescan method relative to control
[20] = target: Cyclin-dependent kinase 16 (Homo sapiens) (UniProt Q00536); test: Inhibition of wild-type human partial length PCTAIRE1 (G160 to A474 residues) expressed in mammalian expression system assessed as residual activity at 50 nM by Kinomescan method relative to control
[21] = target: Mitogen-activated protein kinase kinase kinase 13 (Homo sapiens) (UniProt O43283); test: Inhibition of wild-type human full length LZK (M1 to W966 residues) expressed in mammalian expression system assessed as residual activity at 50 nM by Kinomescan method relative to control
[22] = target: Tyrosine-protein kinase ABL2 (Homo sapiens) (UniProt P42684); test: Inhibition of wild-type human ARG (A248 to G542 residues) expressed in bacterial expression system assessed as residual activity at 50 nM by Kinomescan method relative to control
[23] = target: Serine/threonine-protein kinase Sgk3 (Homo sapiens) (UniProt Q96BR1); test: Inhibition of wild-type human partial length SGK3 (M119 to L496 residues) expressed in mammalian expression system assessed as residual activity at 50 nM by Kinomescan method relative to control
[24] = target: Ephrin type-B receptor 4 (Homo sapiens) (UniProt P54760); test: Inhibition of wild-type human partial length EPHB4 (H585 to G892 residues) expressed in bacterial expression system assessed as residual activity at 50 nM by Kinomescan method relative to control
[25] = target: Cyclin-G-associated kinase (Homo sapiens) (UniProt O14976); test: Inhibition of wild-type human partial length GAK (G13 to Y338 residues) expressed in bacterial expression system assessed as residual activity at 50 nM by Kinomescan method relative to control

Chain of Phosphatidylinositol 4,5-bisphosphate 3-kinase catalytic subunit alpha isoform (Homo sapiens) (P42336 whole entry, the tested form may be a part, canonical isoform): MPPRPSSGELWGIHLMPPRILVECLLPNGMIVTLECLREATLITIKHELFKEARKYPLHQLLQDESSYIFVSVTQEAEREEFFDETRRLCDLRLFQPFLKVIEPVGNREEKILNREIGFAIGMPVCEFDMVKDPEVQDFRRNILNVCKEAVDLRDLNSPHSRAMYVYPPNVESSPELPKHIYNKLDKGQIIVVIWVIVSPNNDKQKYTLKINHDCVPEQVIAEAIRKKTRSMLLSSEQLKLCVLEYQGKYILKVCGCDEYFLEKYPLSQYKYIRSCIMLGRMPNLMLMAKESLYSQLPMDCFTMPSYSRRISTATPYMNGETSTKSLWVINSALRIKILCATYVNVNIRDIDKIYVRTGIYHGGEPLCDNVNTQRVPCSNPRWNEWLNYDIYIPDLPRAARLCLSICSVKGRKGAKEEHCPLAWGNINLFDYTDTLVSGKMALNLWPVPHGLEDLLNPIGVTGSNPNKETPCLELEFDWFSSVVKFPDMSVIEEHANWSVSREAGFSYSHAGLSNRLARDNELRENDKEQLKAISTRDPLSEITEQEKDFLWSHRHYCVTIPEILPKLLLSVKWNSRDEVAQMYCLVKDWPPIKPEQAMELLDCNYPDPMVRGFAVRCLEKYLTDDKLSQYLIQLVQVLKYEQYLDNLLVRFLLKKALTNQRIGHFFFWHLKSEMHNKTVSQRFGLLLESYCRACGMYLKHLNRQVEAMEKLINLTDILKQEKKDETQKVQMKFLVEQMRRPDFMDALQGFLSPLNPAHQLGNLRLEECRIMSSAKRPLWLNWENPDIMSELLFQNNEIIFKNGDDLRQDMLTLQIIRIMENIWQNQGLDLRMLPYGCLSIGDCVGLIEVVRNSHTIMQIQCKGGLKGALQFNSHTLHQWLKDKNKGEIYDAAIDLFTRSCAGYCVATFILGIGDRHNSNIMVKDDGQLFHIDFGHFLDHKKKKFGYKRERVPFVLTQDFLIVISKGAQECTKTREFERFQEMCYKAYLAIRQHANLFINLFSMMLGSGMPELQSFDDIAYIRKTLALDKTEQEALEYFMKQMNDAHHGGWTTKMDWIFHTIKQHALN
Chain of Ephrin type-A receptor 6 (Homo sapiens) (Q9UF33 whole entry, the tested form may be a part): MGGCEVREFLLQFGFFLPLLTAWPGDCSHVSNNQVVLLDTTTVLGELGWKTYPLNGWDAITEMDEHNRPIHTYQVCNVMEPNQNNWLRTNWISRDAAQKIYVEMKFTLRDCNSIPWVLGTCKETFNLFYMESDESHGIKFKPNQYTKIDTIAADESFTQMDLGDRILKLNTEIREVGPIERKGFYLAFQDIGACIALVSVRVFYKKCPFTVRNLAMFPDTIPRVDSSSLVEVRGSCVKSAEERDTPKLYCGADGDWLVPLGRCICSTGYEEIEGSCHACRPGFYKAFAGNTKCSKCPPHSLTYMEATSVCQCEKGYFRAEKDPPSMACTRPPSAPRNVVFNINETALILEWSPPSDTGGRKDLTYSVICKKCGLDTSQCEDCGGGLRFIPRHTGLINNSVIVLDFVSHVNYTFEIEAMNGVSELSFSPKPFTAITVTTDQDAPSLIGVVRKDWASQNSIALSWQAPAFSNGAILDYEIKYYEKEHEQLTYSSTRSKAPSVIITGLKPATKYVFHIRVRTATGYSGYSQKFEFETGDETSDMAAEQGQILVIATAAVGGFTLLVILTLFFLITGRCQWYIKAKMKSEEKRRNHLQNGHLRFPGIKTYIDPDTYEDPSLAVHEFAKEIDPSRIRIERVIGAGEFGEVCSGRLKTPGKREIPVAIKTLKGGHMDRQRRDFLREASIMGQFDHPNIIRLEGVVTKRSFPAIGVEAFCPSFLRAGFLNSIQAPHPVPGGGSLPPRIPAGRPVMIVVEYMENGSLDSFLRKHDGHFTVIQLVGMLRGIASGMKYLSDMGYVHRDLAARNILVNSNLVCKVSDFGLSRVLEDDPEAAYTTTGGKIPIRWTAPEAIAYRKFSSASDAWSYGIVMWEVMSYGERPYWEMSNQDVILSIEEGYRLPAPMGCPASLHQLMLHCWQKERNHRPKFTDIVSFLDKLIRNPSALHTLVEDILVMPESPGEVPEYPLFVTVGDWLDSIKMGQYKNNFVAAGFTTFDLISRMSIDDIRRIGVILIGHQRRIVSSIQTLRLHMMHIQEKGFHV
Chain of Ribosomal protein S6 kinase alpha-3 (Homo sapiens) (P51812 whole entry, the tested form may be a part): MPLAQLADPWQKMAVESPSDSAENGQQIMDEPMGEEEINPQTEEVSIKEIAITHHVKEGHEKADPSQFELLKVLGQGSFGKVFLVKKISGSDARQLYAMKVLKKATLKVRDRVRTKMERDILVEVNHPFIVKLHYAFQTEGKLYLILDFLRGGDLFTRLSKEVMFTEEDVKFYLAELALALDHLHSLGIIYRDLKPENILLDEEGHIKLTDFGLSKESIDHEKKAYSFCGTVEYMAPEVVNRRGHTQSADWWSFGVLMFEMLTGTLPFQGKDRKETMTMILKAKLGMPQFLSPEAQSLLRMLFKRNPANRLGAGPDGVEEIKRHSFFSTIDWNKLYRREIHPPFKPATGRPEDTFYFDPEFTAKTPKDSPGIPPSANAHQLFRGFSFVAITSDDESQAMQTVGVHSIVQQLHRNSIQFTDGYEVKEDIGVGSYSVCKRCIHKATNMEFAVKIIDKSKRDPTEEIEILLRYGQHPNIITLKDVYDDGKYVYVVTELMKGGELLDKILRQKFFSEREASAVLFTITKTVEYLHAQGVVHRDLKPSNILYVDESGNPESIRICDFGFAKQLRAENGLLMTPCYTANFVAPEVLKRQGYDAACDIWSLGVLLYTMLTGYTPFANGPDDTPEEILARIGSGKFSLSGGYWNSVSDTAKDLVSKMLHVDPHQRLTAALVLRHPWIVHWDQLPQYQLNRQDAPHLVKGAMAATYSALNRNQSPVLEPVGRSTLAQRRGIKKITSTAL
Chain of Ribosomal protein S6 kinase alpha-1 (Homo sapiens) (Q15418 whole entry, the tested form may be a part): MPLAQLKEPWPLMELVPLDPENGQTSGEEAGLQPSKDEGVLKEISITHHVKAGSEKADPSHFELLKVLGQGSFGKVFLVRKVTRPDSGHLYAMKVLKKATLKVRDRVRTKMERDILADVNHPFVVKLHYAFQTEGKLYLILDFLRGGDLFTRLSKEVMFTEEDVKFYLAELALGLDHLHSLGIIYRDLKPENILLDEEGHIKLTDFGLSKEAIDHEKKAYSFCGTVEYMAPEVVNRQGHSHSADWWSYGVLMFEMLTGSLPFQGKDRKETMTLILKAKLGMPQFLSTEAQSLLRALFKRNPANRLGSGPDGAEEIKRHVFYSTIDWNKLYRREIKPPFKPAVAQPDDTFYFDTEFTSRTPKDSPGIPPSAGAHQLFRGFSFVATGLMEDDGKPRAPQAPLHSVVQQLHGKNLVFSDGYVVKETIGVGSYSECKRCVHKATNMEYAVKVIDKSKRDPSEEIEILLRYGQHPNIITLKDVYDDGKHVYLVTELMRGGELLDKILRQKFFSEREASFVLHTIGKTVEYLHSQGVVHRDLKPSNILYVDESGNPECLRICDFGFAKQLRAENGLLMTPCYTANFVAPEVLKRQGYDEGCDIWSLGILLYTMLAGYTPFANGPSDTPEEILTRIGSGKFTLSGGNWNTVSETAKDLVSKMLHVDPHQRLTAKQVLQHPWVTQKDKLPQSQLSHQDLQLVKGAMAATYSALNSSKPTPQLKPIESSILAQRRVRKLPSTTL
Chain of Serine/threonine-protein kinase/endoribonuclease IRE1 (Homo sapiens) (O75460 19-977 limits assumed): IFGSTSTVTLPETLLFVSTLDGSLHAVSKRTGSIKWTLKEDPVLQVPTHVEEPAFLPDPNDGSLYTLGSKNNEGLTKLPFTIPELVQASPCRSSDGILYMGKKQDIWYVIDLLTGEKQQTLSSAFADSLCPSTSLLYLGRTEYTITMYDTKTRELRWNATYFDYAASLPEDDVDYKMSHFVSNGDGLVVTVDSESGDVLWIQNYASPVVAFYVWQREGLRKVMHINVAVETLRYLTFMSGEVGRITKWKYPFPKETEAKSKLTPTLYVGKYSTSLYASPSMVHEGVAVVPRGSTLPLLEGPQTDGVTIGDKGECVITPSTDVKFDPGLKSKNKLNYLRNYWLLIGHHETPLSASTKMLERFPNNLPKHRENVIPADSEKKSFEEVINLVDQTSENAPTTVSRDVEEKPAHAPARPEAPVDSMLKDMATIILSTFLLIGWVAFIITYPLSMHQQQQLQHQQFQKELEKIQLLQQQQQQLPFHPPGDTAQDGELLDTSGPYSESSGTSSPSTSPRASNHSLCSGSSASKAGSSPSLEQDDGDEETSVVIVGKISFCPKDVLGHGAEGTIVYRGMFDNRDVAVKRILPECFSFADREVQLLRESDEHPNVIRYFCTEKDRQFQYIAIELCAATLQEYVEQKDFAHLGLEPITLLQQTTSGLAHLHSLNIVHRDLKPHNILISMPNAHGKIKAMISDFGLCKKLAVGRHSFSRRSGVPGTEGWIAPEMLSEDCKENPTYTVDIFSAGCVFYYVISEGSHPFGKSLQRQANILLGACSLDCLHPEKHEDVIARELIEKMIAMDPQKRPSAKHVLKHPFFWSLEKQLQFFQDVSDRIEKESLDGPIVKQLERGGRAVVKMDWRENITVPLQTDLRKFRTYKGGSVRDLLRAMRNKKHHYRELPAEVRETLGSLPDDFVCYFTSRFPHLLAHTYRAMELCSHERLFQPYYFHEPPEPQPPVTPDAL
Chain of Activin receptor type-1-like (Homo sapiens) (P37023 whole entry, the tested form may be a part): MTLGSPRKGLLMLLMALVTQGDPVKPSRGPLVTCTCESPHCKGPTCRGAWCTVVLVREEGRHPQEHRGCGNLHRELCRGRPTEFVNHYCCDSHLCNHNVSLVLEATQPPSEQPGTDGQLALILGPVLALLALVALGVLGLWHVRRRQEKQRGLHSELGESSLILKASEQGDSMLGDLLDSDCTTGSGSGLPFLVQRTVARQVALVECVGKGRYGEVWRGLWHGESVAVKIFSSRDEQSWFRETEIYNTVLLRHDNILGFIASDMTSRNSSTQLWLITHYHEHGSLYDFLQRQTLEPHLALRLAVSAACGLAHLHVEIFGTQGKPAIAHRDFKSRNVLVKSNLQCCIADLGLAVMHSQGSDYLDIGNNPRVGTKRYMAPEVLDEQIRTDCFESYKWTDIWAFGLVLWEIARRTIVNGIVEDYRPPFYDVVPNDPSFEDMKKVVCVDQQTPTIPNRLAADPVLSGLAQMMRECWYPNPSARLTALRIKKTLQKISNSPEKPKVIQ

Question: `COc1ccc(-c2cc3c(N[C@@H]4CC[C@](C)(N)C4(C)C)c(C(N)=O)cnn3c2)cn1` was tested. Which Activity [1] did it give?
Answer: 100%

Question: What about the Activity [2] of the same compound?
Answer: 78%

Question: And the Activity [3]?
Answer: 100%

Question: What about the Activity [4] of the same compound?
Answer: 92%

Question: And the Activity [5]?
Answer: 83%

Question: What about the Activity [6] of the same compound?
Answer: 80%

Question: And the Activity [7]?
Answer: 100%

Question: And the Activity [8]?
Answer: 100%

Question: And the Activity [9]?
Answer: 90%

Question: What about the Activity [10] of the same compound?
Answer: 88%

Question: And the Activity [11]?
Answer: 100%

Question: What about the Activity [12] of the same compound?
Answer: 85%

Question: What about the Activity [13] of the same compound?
Answer: 84%

Question: And the Activity [14]?
Answer: 94%

Question: What about the Activity [15] of the same compound?
Answer: 74%

Question: And the Activity [16]?
Answer: 100%

Question: And the Activity [17]?
Answer: 95%

Question: And the Activity [18]?
Answer: 100%

Question: And the Activity [19]?
Answer: 74%

Question: And the Activity [20]?
Answer: 89%

Question: And the Activity [21]?
Answer: 90%

Question: And the Activity [22]?
Answer: 91%

Question: And the Activity [23]?
Answer: 84%

Question: What about the Activity [24] of the same compound?
Answer: 96%

Question: And the Activity [25]?
Answer: 100%

Question: For `CC1(C)[C@H](Nc2c(C(N)=O)cnn3cc(-c4ccccc4)cc23)CC[C@]1(C)N`, which Activity [1] is on record?
Answer: 100%

Question: And the Activity [2]?
Answer: 100%

Question: What about the Activity [3] of the same compound?
Answer: 100%

Question: What about the Activity [4] of the same compound?
Answer: 81%

Question: And the Activity [5]?
Answer: 100%

Question: What about the Activity [6] of the same compound?
Answer: 100%

Question: And the Activity [7]?
Answer: 81%

Question: What about the Activity [8] of the same compound?
Answer: 100%

Question: And the Activity [9]?
Answer: 90%

Question: What about the Activity [10] of the same compound?
Answer: 100%

Question: And the Activity [11]?
Answer: 100%

Question: And the Activity [12]?
Answer: 70%

Question: And the Activity [13]?
Answer: 93%

Question: And the Activity [14]?
Answer: 89%

Question: And the Activity [15]?
Answer: 47%

Question: What about the Activity [16] of the same compound?
Answer: 67%

Question: What about the Activity [17] of the same compound?
Answer: 100%

Question: What about the Activity [18] of the same compound?
Answer: 100%

Question: And the Activity [19]?
Answer: 38%

Question: And the Activity [20]?
Answer: 100%

Question: What about the Activity [21] of the same compound?
Answer: 93%

Question: And the Activity [22]?
Answer: 91%

Question: And the Activity [23]?
Answer: 56%

Question: And the Activity [24]?
Answer: 99%

Question: What about the Activity [25] of the same compound?
Answer: 91%
